Laboratory results published in PubChem BioAssay AID2060509 (Molecular Pharmacology Branch, DTP, NCI, 2025).

Tested on: 485176-168-R4-J1-PDC spheroids with HUVEC/MSC, viability
Experiment: Anticancer human tumor 485176-168-R4-J1-PDC patient-derived pancreatic adenocarcinoma cell line growth inhibition [GQUAD]
Details: for IC50: curve of first compound; for viability, T/C: stronger effect = lower value
Method in brief: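 Viability of tumor cells grown as complex spheroids with endothelial and stromal cells, exposed to drug combinations. Top concentration at or near clinical Cmax (else 10 microM), diluted in half-log increments.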

[1] = second compound 0.0316 µM, first compound 0.0316 µM
[2] = second compound 0.0316 µM, first compound 0.1 µM
[3] = second compound 0.0316 µM, first compound 0.316 µM
[4] = second compound 0.0316 µM, first compound 1 µM
[5] = second compound 0.0316 µM, first compound 3.16 µM
[6] = second compound 0.0316 µM, first compound 10 µM
[7] = second compound 0.1 µM, first compound 0.0316 µM
[8] = second compound 0.1 µM, first compound 0.1 µM
[9] = second compound 0.1 µM, first compound 0.316 µM
[10] = second compound 0.1 µM, first compound 1 µM
[11] = second compound 0.1 µM, first compound 3.16 µM
[12] = second compound 0.1 µM, first compound 10 µM
[13] = second compound 0.316 µM, first compound 0.0316 µM
[14] = second compound 0.316 µM, first compound 0.1 µM
[15] = second compound 0.316 µM, first compound 0.316 µM
[16] = second compound 0.316 µM, first compound 1 µM
[17] = second compound 0.316 µM, first compound 3.16 µM
[18] = second compound 0.316 µM, first compound 10 µM
[19] = second compound 1 µM, first compound 0.0316 µM
[20] = second compound 1 µM, first compound 0.1 µM
[21] = second compound 1 µM, first compound 0.316 µM
[22] = second compound 1 µM, first compound 1 µM
[23] = second compound 1 µM, first compound 3.16 µM
[24] = second compound 1 µM, first compound 10 µM
[25] = second compound 3.16 µM, first compound 0.0316 µM
[26] = second compound 3.16 µM, first compound 0.1 µM
[27] = second compound 3.16 µM, first compound 0.316 µM
[28] = second compound 3.16 µM, first compound 1 µM
[29] = second compound 3.16 µM, first compound 3.16 µM
[30] = second compound 3.16 µM, first compound 10 µM
[31] = second compound 10 µM, first compound 0.0316 µM
[32] = second compound 10 µM, first compound 0.1 µM
[33] = second compound 10 µM, first compound 0.316 µM
[34] = second compound 10 µM, first compound 1 µM
[35] = second compound 10 µM, first compound 3.16 µM
[36] = second compound 10 µM, first compound 10 µM
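Also: spheroids exposed to compounds for seven days before readout.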
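For viability, T/C in this document: percent viability relative to DMSO vehicle control wells as 100%.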

## CC1COCCN1c1cc(C2(O)CC3CCC(C2)O3)c2cnn(-c3ccn[nH]3)c2n1 (centres undefined) + Cc1cnc(CNC(=O)c2c(=O)c3ccc(N4CCCN(C)CC4)nc3n3c2sc2ccccc23)cn1
Second compound 0.0316 µM
  IC50: < 0.0316 µM
Second compound 0.1 µM
  IC50: < 0.0316 µM
Second compound 0.316 µM
  IC50: < 0.0316 µM
Second compound 1 µM
  IC50: < 0.0316 µM
Second compound 3.16 µM
  IC50: < 0.0316 µM
Second compound 10 µM
  IC50: < 0.0316 µM
[1]
  viability, T/C: 48.9%
[2]
  viability, T/C: 17.3%
[3]
  viability, T/C: 11%
[4]
  viability, T/C: 8.41%
[5]
  viability, T/C: 10.1%
[6]
  viability, T/C: 8.06%
[7]
  viability, T/C: 22.6%
[8]
  viability, T/C: 14.5%
[9]
  viability, T/C: 9.1%
[10]
  viability, T/C: 9.8%
[11]
  viability, T/C: 11.5%
[12]
  viability, T/C: 8.77%
[13]
  viability, T/C: 15.5%
[14]
  viability, T/C: 11.7%
[15]
  viability, T/C: 10.3%
[16]
  viability, T/C: 9.55%
[17]
  viability, T/C: 10.9%
[18]
  viability, T/C: 9.41%
[19]
  viability, T/C: 13.8%
[20]
  viability, T/C: 12.3%
[21]
  viability, T/C: 9.3%
[22]
  viability, T/C: 7.89%
[23]
  viability, T/C: 9.58%
[24]
  viability, T/C: 7.69%
[25]
  viability, T/C: 17.7%
[26]
  viability, T/C: 11.3%
[27]
  viability, T/C: 10.5%
[28]
  viability, T/C: 9.3%
[29]
  viability, T/C: 8.86%
[30]
  viability, T/C: 8.53%
[31]
  viability, T/C: 13.8%
[32]
  viability, T/C: 11.2%
[33]
  viability, T/C: 10.2%
[34]
  viability, T/C: 9.98%
[35]
  viability, T/C: 9.05%
[36]
  viability, T/C: 7.21%

## O=C(c1cc(Cc2n[nH]c(=O)c3ccccc23)ccc1F)N1CCN(C(=O)C2CC2)CC1 + CN(C)c1ccc(Nc2c3ccc(NC(=O)CCN4CCCC4)cc3nc3cc(NC(=O)CCN4CCCC4)ccc23)cc1
Second compound 0.0316 µM
  IC50: > 10 µM
Second compound 0.1 µM
  IC50: > 10 µM
Second compound 0.316 µM
  IC50: > 10 µM
Second compound 1 µM
  IC50: > 10 µM
Second compound 3.16 µM
  IC50: > 10 µM
Second compound 10 µM
  IC50: > 10 µM
[1]
  viability, T/C: 90.6%
[2]
  viability, T/C: 92.6%
[3]
  viability, T/C: 103%
[4]
  viability, T/C: 103%
[5]
  viability, T/C: 111%
[6]
  viability, T/C: 79.3%
[7]
  viability, T/C: 96.3%
[8]
  viability, T/C: 98.7%
[9]
  viability, T/C: 102%
[10]
  viability, T/C: 91.2%
[11]
  viability, T/C: 86.5%
[12]
  viability, T/C: 72.5%
[13]
  viability, T/C: 84.7%
[14]
  viability, T/C: 90.8%
[15]
  viability, T/C: 91.2%
[16]
  viability, T/C: 95.3%
[17]
  viability, T/C: 105%
[18]
  viability, T/C: 81.5%
[19]
  viability, T/C: 107%
[20]
  viability, T/C: 91.5%
[21]
  viability, T/C: 90%
[22]
  viability, T/C: 86.4%
[23]
  viability, T/C: 89.4%
[24]
  viability, T/C: 73.6%
[25]
  viability, T/C: 96.9%
[26]
  viability, T/C: 93.7%
[27]
  viability, T/C: 89.9%
[28]
  viability, T/C: 90.8%
[29]
  viability, T/C: 95.4%
[30]
  viability, T/C: 68.4%
[31]
  viability, T/C: 94.7%
[32]
  viability, T/C: 89.9%
[33]
  viability, T/C: 77.4%
[34]
  viability, T/C: 85.8%
[35]
  viability, T/C: 84.7%
[36]
  viability, T/C: 59.7%
